Laboratory results reported in ChEMBL document CHEMBL3286359, “Synthesis and SAR of substituted pyrazolo[1,5-a]quinazolines as dual mGlu(2)/mGlu(3) NAMs” (Bioorg Med Chem Lett, 2014).
Calls of active or inactive are those of the source. The calls are words filed in the database; no cut-off is given here.

Experiments:
Format in all cases: functional, cell-based
[1] = biological target: Metabotropic glutamate receptor 2 (Rattus norvegicus, UniProt P31421); assay: Inhibition of rat mGlu2 receptor transfected in HEK293 cells coexpressing mouse Galpha15 assessed as decrease in glutamate-induced calcium signaling by fluorescence plate reader analysis in presence of glutamate at EC76 concentration
[2] = biological target: Metabotropic glutamate receptor 3 (Rattus norvegicus, UniProt P31422); assay: Inhibition of rat mGlu3 receptor transfected in HEK293 cells coexpressing mouse Galpha15 assessed as decrease in glutamate-induced calcium signaling by fluorescence plate reader analysis in presence of glutamate at EC87 concentration
[3] = biological target: Metabotropic glutamate receptor 3 (Rattus norvegicus) (UniProt P31422); assay: Positive allosteric modulatory activity at rat mGlu3 receptor transfected in HEK293 cells co-expressing mouse Galpha15 assessed as potentiation of glutamate-dependent calcium signaling at 3 uM by fluorescence plate reader analysis in presence of glutamate at EC20 concentration
[4] = biological target: Metabotropic glutamate receptor 2 (Rattus norvegicus) (UniProt P31421); assay: Positive allosteric modulatory activity at rat mGlu2 receptor transfected in HEK293 cells co-expressing mouse Galpha15 assessed as potentiation of glutamate-dependent calcium signaling at 3 uM by fluorescence plate reader analysis in presence of glutamate at EC20 concentration
[5] = biological target: Metabotropic glutamate receptor 2 (Rattus norvegicus) (UniProt P31421); assay: Inhibition of rat mGlu2 receptor transfected in HEK293 cells coexpressing mouse Galpha15 assessed as decrease in glutamate-induced calcium signaling at 3 uM by fluorescence plate reader analysis in presence of glutamate at EC76 concentration
[6] = biological target: Metabotropic glutamate receptor 3 (Rattus norvegicus) (UniProt P31422); assay: Inhibition of rat mGlu3 receptor transfected in HEK293 cells coexpressing mouse Galpha15 assessed as decrease in glutamate-induced calcium signaling at 3 uM by fluorescence plate reader analysis in presence of glutamate at EC87 concentration

Sequence of Metabotropic glutamate receptor 2 (Rattus norvegicus) (P31421 19-872 limits assumed): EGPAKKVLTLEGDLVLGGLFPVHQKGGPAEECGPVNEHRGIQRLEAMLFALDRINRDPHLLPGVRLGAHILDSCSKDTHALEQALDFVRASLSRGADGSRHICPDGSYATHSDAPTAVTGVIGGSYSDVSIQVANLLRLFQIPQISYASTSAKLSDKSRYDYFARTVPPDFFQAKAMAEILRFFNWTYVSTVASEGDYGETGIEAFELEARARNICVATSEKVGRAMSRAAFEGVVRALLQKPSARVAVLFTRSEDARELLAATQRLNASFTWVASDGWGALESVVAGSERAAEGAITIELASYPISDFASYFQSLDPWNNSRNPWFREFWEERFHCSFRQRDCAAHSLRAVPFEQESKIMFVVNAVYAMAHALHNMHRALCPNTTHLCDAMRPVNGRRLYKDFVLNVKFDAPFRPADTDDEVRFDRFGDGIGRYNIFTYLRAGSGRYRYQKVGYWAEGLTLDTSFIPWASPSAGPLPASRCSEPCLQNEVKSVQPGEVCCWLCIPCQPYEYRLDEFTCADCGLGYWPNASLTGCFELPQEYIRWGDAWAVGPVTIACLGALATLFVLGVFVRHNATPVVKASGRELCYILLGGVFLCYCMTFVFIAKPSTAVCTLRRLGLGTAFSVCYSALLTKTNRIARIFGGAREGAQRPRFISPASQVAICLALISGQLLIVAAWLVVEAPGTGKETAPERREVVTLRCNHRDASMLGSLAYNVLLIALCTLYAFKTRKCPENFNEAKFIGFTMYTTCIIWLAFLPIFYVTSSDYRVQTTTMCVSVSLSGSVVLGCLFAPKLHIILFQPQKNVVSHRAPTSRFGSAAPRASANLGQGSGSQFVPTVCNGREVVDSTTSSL
Sequence of Metabotropic glutamate receptor 2 (P31421 whole entry): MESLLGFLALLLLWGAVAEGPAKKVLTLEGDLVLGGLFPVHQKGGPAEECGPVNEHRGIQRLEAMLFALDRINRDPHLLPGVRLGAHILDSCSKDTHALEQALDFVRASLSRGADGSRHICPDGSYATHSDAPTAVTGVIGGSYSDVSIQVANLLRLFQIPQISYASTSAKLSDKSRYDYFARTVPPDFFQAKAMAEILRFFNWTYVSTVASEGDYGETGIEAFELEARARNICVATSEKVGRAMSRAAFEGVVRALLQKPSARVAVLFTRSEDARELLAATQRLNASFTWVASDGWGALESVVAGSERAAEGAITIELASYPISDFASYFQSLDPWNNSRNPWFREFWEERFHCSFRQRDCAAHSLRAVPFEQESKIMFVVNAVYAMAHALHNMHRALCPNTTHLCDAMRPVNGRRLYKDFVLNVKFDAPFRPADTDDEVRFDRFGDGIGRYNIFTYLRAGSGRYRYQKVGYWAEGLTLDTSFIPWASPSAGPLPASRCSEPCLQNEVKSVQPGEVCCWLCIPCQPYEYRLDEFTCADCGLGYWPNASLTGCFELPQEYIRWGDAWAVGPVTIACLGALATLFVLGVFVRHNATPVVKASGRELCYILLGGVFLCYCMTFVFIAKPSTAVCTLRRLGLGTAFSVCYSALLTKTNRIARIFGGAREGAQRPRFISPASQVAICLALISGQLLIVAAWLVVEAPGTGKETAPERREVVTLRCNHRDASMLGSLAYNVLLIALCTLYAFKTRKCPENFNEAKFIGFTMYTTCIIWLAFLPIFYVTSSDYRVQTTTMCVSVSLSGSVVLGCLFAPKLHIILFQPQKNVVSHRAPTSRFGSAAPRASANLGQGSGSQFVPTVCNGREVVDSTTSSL
Sequence of Metabotropic glutamate receptor 3 (Rattus norvegicus) (P31422 23-879 limits assumed): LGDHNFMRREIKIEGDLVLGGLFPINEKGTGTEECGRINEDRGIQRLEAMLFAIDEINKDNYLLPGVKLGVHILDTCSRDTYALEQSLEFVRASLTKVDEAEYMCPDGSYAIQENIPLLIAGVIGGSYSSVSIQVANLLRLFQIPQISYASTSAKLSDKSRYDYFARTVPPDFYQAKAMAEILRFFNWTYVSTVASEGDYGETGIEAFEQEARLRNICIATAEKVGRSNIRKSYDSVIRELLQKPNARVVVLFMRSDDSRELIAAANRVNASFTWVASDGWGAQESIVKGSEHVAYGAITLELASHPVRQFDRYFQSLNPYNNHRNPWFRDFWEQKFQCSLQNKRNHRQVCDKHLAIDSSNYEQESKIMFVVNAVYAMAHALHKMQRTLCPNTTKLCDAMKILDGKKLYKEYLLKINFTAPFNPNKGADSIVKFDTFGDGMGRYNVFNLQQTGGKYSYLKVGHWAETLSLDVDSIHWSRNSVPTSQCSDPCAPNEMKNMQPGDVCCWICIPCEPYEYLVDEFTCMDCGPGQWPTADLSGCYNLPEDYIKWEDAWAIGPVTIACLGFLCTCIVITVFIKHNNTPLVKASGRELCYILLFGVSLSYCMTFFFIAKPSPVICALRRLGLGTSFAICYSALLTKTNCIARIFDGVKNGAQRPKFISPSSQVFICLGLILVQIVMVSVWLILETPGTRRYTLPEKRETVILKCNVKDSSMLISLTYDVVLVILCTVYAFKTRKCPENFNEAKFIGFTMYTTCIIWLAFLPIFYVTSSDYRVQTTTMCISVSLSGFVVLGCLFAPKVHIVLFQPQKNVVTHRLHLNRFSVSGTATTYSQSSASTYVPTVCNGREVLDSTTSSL
Sequence of Metabotropic glutamate receptor 3 (P31422 whole entry): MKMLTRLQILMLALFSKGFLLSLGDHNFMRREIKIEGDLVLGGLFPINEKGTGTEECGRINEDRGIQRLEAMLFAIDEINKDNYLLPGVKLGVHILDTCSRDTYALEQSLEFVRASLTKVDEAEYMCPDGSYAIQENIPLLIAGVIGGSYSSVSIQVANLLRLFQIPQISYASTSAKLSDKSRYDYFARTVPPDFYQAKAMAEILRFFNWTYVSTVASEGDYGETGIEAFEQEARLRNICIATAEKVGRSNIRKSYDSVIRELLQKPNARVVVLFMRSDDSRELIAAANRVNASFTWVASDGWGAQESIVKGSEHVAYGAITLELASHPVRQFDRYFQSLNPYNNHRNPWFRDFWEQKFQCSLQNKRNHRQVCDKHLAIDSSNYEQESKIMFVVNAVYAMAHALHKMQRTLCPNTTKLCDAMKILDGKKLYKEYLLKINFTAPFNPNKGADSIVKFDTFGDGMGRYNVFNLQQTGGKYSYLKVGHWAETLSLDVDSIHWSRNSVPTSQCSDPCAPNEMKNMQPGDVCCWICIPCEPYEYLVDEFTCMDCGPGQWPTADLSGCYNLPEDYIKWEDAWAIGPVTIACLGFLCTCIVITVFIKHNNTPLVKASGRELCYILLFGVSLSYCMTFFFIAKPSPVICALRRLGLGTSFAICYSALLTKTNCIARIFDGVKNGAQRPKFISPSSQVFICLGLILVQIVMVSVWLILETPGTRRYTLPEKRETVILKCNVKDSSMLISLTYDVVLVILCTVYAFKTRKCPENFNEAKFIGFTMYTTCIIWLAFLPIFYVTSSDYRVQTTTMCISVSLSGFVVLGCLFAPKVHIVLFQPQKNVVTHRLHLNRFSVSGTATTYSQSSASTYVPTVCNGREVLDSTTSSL

Compound	IC50 [1]	IC50 [2]	Activity [3]	Activity [4]	inhibition [5]	inhibition [6]
Cn1c(=O)c2ccc(-c3cccnc3)cc2n2nc(-c3cccc(F)c3)cc12	1560 nM	247 nM	inactive	inactive		
COc1ccc(-c2ccc3c(=O)n(C)c4cc(-c5cccc(C)c5)nn4c3c2)cc1			inactive	inactive	0%	34%
O=c1[nH]c2cc(-c3ccccc3)nn2c2cc(-c3ccccc3)ccc12					2%	6%
Cn1c(=O)c2ccc(-c3cccnc3)cc2n2nc(-c3ccccc3)cc12	852 nM	165 nM	inactive	inactive		
Cn1c(=O)c2ccc(-c3ccc4cc[nH]c4c3)cc2n2nc(-c3ccccc3)cc12					9%	34%
COc1ccc(-c2ccc3c(=O)n(C)c4cc(-c5cccc(OC)c5)nn4c3c2)cc1			inactive	inactive	6%	48%
Cn1c(=O)c2ccc(-c3ccccc3)cc2n2nc(-c3ccccc3)cc12	> 10000 nM	> 10000 nM	inactive	inactive		
Cc1ccc2c(=O)n(C)c3cc(-c4ccccc4)nn3c2c1			inactive	inactive	17%	59%
CC(=O)n1c(=O)c2ccc(-c3ccccc3)cc2n2nc(-c3ccccc3)cc12					3%	8%
O=c1[nH]c2cc(-c3ccccc3)nn2c2cc(-c3cccnc3)ccc12					4%	8%
Cn1c(=O)c2ccc(-c3cccnc3)cc2n2nc(-c3cccc(Cl)c3)cc12	564 nM	293 nM	inactive	inactive		
COc1cccc(-c2cc3n(C)c(=O)c4ccc(-c5ccccc5)cc4n3n2)c1	> 10000 nM	> 10000 nM	inactive	inactive		
Cn1c(=O)c2ccc(-c3cccnc3)cc2n2nc(-c3ccc(F)cc3)cc12	427 nM	67 nM	inactive	inactive		
COc1ccc(-c2ccc3c(=O)n(C)c4cc(-c5cccc(Br)c5)nn4c3c2)cc1			inactive	inactive	4%	23%
O=c1c2ccc(-c3cccnc3)cc2n2nc(-c3ccccc3)cc2n1CCO	4650 nM	3150 nM				
Cn1c(=O)c2ccc(-c3ccccc3)cc2n2nc(-c3cccc(Br)c3)cc12			inactive	inactive	8%	28%
CC(=O)n1c(=O)c2ccc(-c3cccnc3)cc2n2nc(-c3ccccc3)cc12	> 10000 nM	> 10000 nM				
COc1ccc(-c2ccc3c(=O)n(C)c4cc(-c5ccc(F)cc5)nn4c3c2)cc1	> 10000 nM	> 10000 nM	inactive	inactive		

More lines, now with the values ahead:

IC50 [1]	IC50 [2]	Activity [3]	Activity [4]	inhibition [5]	inhibition [6]	Compound
				4%	33%	Cn1c(=O)c2ccc(-c3cnc4ccccc4c3)cc2n2nc(-c3ccccc3)cc12
> 10000 nM	> 10000 nM					Cn1c(=O)c2ccc(-c3ccc4cn[nH]c4c3)cc2n2nc(-c3ccccc3)cc12
> 10000 nM	> 10000 nM	inactive	inactive			Cn1c(=O)c2ccc(-c3cccnc3)cc2n2nc(-c3cccc(Br)c3)cc12
				0%	3%	O=c1c2ccc(-c3ccccc3)cc2n2nc(-c3ccccc3)cc2n1CCO
3120 nM	1180 nM	inactive	inactive			COc1cccc(-c2cc3n(C)c(=O)c4ccc(-c5cccnc5)cc4n3n2)c1
		inactive	inactive	2%	39%	Cn1c(=O)c2ccc(-c3ccccc3)cc2n2nc(-c3cccc(F)c3)cc12
1770 nM	509 nM					Cn1c(=O)c2ccc(-c3ccncc3)cc2n2nc(-c3ccccc3)cc12
> 10000 nM	> 10000 nM	inactive	inactive			Cc1ccc2c(=O)n(C)c3cc(-c4ccc(F)cc4)nn3c2c1
> 10000 nM	> 10000 nM	inactive	inactive			Cn1c(=O)c2ccc(-c3cccc(S(N)(=O)=O)c3)cc2n2nc(-c3cccc(F)c3)cc12
		inactive	inactive		0%	COc1ccc(-c2ccc3c(=O)n(C)c4cc(-c5ccccc5)nn4c3c2)cc1
> 10000 nM	> 10000 nM	inactive	inactive			COc1cccc(-c2cc3n(C)c(=O)c4ccc(C)cc4n3n2)c1
1790 nM	530 nM	inactive	inactive			Cc1cccc(-c2cc3n(C)c(=O)c4ccc(-c5cccnc5)cc4n3n2)c1
		inactive	inactive	12%	64%	Cn1c(=O)c2ccc(-c3ccccc3)cc2n2nc(-c3ccc(F)cc3)cc12
		inactive	inactive	16%	38%	Cc1ccc2c(=O)n(C)c3cc(-c4cccc(F)c4)nn3c2c1
1390 nM	696 nM	inactive	inactive			COc1cccc(-c2cc3n(C)c(=O)c4ccc(-c5cccc(S(N)(=O)=O)c5)cc4n3n2)c1
> 10000 nM	4510 nM					Cn1c(=O)c2ccc(-c3ccc4ccncc4c3)cc2n2nc(-c3ccccc3)cc12
		inactive	inactive	9%	31%	COc1ccc(-c2ccc3c(=O)n(C)c4cc(-c5cccc(Cl)c5)nn4c3c2)cc1
		inactive	inactive	6%	2%	COc1ccc(-c2ccc3c(=O)n(C)c4cc(-c5cccc(F)c5)nn4c3c2)cc1
		inactive	inactive	7%	19%	Cn1c(=O)c2ccc(-c3ccccc3)cc2n2nc(-c3cccc(Cl)c3)cc12
		inactive	inactive	7%	49%	Cc1cccc(-c2cc3n(C)c(=O)c4ccc(-c5ccccc5)cc4n3n2)c1
	884 nM	inactive	inactive			Cn1c(=O)c2ccc(-c3cccc(S(N)(=O)=O)c3)cc2n2nc(-c3ccccc3)cc12
				0%	16%	Cn1c(=O)c2ccc(-c3ccc4nccnc4c3)cc2n2nc(-c3ccccc3)cc12
3950 nM	1990 nM	inactive	inactive			Cn1c(=O)c2ccc(-c3cccc(S(N)(=O)=O)c3)cc2n2nc(-c3ccc(F)cc3)cc12
